Patent US4091006A, “Esters of 3-hydroxyindone compounds” (priority 1975, dated 1978)

What was measured:
[1] = tested on: adults and nymphal stages of the two-spotted mite; test: Mite Foliage Spray Test; type: in vivo, Tetranychus urticae (Koch); parameters: key: 1: no mortality; 3: an approximately 50% mortality; 5: 100% mortality; conditions: 4 days
Text: (§1) The test procedures were as follows:
(§2) Compositions were rated on the basis of percent kill with a rating of 1 indicating no mortality; 3 signifying an approximately 50% mortality and 5 indicating 100% mortality at the indicated dosage.

[2] = tested on: egg of the two-spotted mite; test: Mite Ovicide Test; type: in vivo, Tetranychus urticae (Koch); parameters: key to Mite Ova rating: 1: no mortality; 3: an approximately 50% mortality; 5: 100% mortality; conditions: spray on eggs, 4 days
Text: as §1
The plants were allowed to dry thoroughly.
as §2

[3] = tested on: Perennial rye grass, crabgrass, red root pigweed, mustard; test: Preliminary Herbicide Seed Germination Test; conditions: each rated 1 (no injury) to 5 (no seedlings emerged)
Text: The thus-prepared stock suspension contained 0.5 percent by weight of compound. The test concentrations employed in the tests described hereinbelow were obtained by diluting the stock suspension with water. The test procedures were as follows:
The following seeds were used in this test:
Crabgrass -- Digitaria san-
Mustard -- Brassica pincea var.
Each of above mixtures is rolled separately in 5 gallon containers for approximately one-half hour on ball mill to insure uniform mixing of seeds and soil. For each compound four 3-inch pots are filled with soil to within 11/2 inches of top of pots. To 2 of these pots are added 70 cc. of Mixture I. To the remaining 2 pots are added 70 cc. of Mixture II. The seed-soil mixture is tamped firmly, and the pots are removed to the greenhouse and watered lightly. About 2 hours after planting, 25 milliliters of the test formulation were added to each of 2 pots for each soil-seed mixture; i.e., one replicate of each seed mixture per concentration. An equal volume of a water solution containing acetone and an emulsifier in the same concentration as the herbicidal mixture but without the candidate herbicide is also added to each of the soil-seed mixtures. These pots are used as check or control units. The test compounds are formulated by standard procedure of solution in acetone, addition of an emulsifier, and dilution with water. Tests were conducted on all compositions at low concentration (100 ppm.). Certain compositions were also tested at high concentration (1000 ppm). The pots were held in the greenhouse and watered lightly until results were taken. Ten to twelve days after application of chemical, injury is noted for each species by comparing treated vs. untreated pots. Ratings are made at both the high and the low concentrations (1000 ppm and 100 ppm) according to the following designations:
4 = few seedlings emerged and/or very severe stunting
3 = moderate reduction in stand and/or moderate stunting
2 = very slight reduction in stand and/or slight stunting
1 = no injury; seedlings appear no different with respect to stand or growth than untreated controls
Accordingly, the maximum rating for one test seed species tested at both high and low concentration is 10 and the maximum possible total preemergence rating is 40 (10 for each of the four test seed species). […] In some tests the crabgrass experiment was omitted. In these tests the maximum total rating for species tested at both high and low concentrations is 30 and 15 for species tested only at low concentrations.

[4] = rating/maximum 20: 100 ppm only, four species
[5] = rating/maximum 40: 100 and 1000 ppm, four species, 10-12 days
[6] = rating/maximum 30: 100 and 1000 ppm, crabgrass omitted
[7] = rating/maximum 15: 100 ppm only, crabgrass omitted

| Compound | Mite Adult rating [1] | Mite Ova rating [2] | Herbicide (total preemergence rating) [3, 4] | Herbicide (total preemergence rating) [3, 5] | Herbicide (total preemergence rating) [3, 6] | Herbicide (total preemergence rating) [3, 7] |
| --- | --- | --- | --- | --- | --- | --- |
| Cc1ccc(C(=O)OC2=C(c3c(Cl)cccc3Cl)C(=O)c3ccccc32)c(C)c1 [3-(2,4-Dimethylbenzoyloxy)-2-(2',6'-dichlorophenyl)indone] | 1 | 3 (an approximately 50% mortality) | 5/20 | – | – | – |
| CC(C)(C)C(=O)OC1=C(c2ccccc2Br)C(=O)c2ccccc21 [2-(2'-Bromophenyl)-3-(pivaloyloxy)indone] | 5 (100% mortality) | 5 (100% mortality) | – | 14/40 | – | – |
| Cc1ccc(C(=O)OC2=C(c3c(C)cc(C)cc3C)C(=O)c3ccccc32)cc1 [3-(4-Methylbenzoyloxy)-2-(2',4',6'-trimethylphenyl)indone] | 5 (100% mortality) | 5 (100% mortality) | – | – | 22/30 | – |
| CCCCCCCCCCCCC(=O)OC1=C(c2cc(C)ccc2C)C(=O)c2ccccc21 [2-(2',5'-Dimethylphenyl)-3-(tridecanoyloxy)indone] | 1 | 5 (100% mortality) | 4/20 | – | – | – |
| CC(C)(C)C(=O)OC1=C(c2ccccc2)C(=O)c2ccccc21 [2-Phenyl-3-(pivaloyloxy)indone] | 1 | 1 | – | 8/40 | – | – |
| CCCCCCCCCCCCCCCCCCOC(=O)OC1=C(c2c(C)cc(C)cc2C)C(=O)c2ccccc21 [2-(2',4',6'-Trimethylphenyl)-3-(octadecyloxycarbonyloxy)indone] | 5 (100% mortality) | 5 (100% mortality) | – | – | – | 13/15 |
| CCCC(C)C(=O)OC1=C(c2ccccc2Cl)C(=O)c2ccccc21 (centres unmarked) [2-(2'-Chlorophenyl)-3-(2-methylpentanoyloxy)indone] | 5 (100% mortality) | 5 (100% mortality) | 4/20 | – | – | – |
| Cc1cc(C)c(C2=C(OC(=O)Oc3ccc(Cl)cc3)c3ccccc3C2=O)c(C)c1 [2-(2',4',6'-Trimethylphenyl)-3-(4-chlorophenyloxycarbonyloxy)indone] | 5 (100% mortality) | 5 (100% mortality) | 19/20 | – | – | – |
| Cc1cc(C)c(C2=C(OC(=O)OC3=C(c4c(C)cc(C)cc4C)C(=O)c4ccccc43)c3ccccc3C2=O)c(C)c1 [Bis[2-(2',4',6'-Trimethylphenyl)Indon-3-yl]Carbonate] | 5 (100% mortality) | 5 (100% mortality) | 15/20 | – | – | – |
| Cc1cc(C)c(C2=C(OC(=O)c3c(Cl)ccc(Cl)c3Cl)c3ccccc3C2=O)c(C)c1 [3-(2,3,6-Trichlorobenzoyloxy)-2-(2',4',6'-trimethylphenyl)indone] | 1 | 3 (an approximately 50% mortality) | – | 21/40 | – | – |
| CC(=O)OC1=C(c2ccccc2)C(=O)c2ccccc21 [2-Phenyl-3-(acetoxy)indone] | 1 | 1 | – | 8/40 | – | – |
| Cc1cc(C)c(C2=C(OC(=O)Cl)c3ccccc3C2=O)c(C)c1 [2-(2',4',6'-Trimethylphenyl)-3-(chlorocarbonyloxy)indone] | 5 (100% mortality) | 5 (100% mortality) | 13/20 | – | – | – |
| Cc1cccc(Cl)c1C1=C(OC(=O)C(C)(C)C)c2ccccc2C1=O [2-(2'-Chloro-6'-methylphenyl)-3-(pivaloyloxy)indone] | 5 (100% mortality) | 5 (100% mortality) | – | 33/40 | – | – |
| COc1ccccc1C1=C(OC(=O)C(C)(C)C)c2ccccc2C1=O [2-(2'-Methoxyphenyl)-3-(pivaloyloxy)indone] | 1 | 1 | – | 8/40 | – | – |
| Cc1cc(C)c(C2=C(OC(=O)N(C)C)c3ccccc3C2=O)c(C)c1 [2-(2',4',6'-Trimethylphenyl)-3-(dimethylcarbamoyloxy)indone] | 3 (an approximately 50% mortality) | 5 (100% mortality) | 14/20 | – | – | – |
| Cc1cc(C)c(C2=C(OC(=O)c3ccc(Cl)c(Cl)c3)c3ccccc3C2=O)c(C)c1 [3-(3,4-Dichlorobenzoyloxy)-2-(2',4',6'-trimethylphenyl)indone] | 5 (100% mortality) | 5 (100% mortality) | – | 32/40 | – | – |
| O=C1C(c2c(Cl)cccc2Cl)=C(OC(=O)c2c(Cl)cccc2Cl)c2ccccc21 [3-(2,6-Dichlorobenzoyloxy)-2-(2',6'-dichlorophenyl)indone] | 1 | 1 | – | 8/40 | – | – |
| 2-(2',6'-Dichlorophenyl)-4(7)-methyl-3-(pivaloxyloxy)indone | 1 | 3 (an approximately 50% mortality) | – | 20/40 | – | – |
| CC(C)c1cccc(C(C)C)c1C1=C(OC(=O)C(C)(C)C)c2ccccc2C1=O [2-(2'6'-diisopropyl)phenyl-3-pivaloyloxyindone] | 1 | 1 | – | – | – | 3/15 |
| Cc1cc(C)c(C2=C(OC(=O)N(C)C3CCCCC3)c3ccccc3C2=O)c(C)c1 [2-(2',4',6'-Trimethylphenyl)-3-(N-cyclohexyl-N-methylcarbamoyloxy)indone] | 5 (100% mortality) | 5 (100% mortality) | 16/20 | – | – | – |
| COc1cc(C)c(C)c(C)c1C1=C(OC(=O)C(C)(C)C)c2ccccc2C1=O [3-(Pivaloyloxy)-2-(6'-methoxy-2',3',4'-trimethylphenyl)indone] | 1 | 1 | – | 16/40 | – | – |
| Cc1cccc(C(=O)OC2=C(c3c(Cl)cccc3Cl)C(=O)c3ccccc32)c1 [3-(3-Methylbenzoyloxy)-2-(2',6'-dichlorophenyl)indone] | 5 (100% mortality) | 5 (100% mortality) | – | 29/40 | – | – |
| CCCCC(CC)C(=O)OC1=C(c2ccccc2C)C(=O)c2ccccc21 (centres unmarked) [3-(2-Ethylhexanoyloxy)-2-(2'-methylphenyl)indone] | 3 (an approximately 50% mortality) | 5 (100% mortality) | 4/20 | – | – | – |
| Cc1cc(C)c(C2=C(OC(=O)NC(C)(C)C)c3ccccc3C2=O)c(C)c1 [2-(2',4',6'-Trimethylphenyl)-3-(N-(t-butyl)carbamoyloxy)indone] | 5 (100% mortality) | 5 (100% mortality) | 15/20 | – | – | – |
| Cc1ccccc1C(=O)OC1=C(c2c(Cl)cccc2Cl)C(=O)c2ccccc21 [3-(2-Methylbenzoyloxy)-2-(2',6'-dichlorophenyl)indone] | 5 (100% mortality) | 5 (100% mortality) | – | 31/40 | – | – |
| COc1ccc(C(=O)OC2=C(c3c(Cl)cccc3Cl)C(=O)c3ccccc32)cc1 [3-(4-Methoxybenzoyloxy)-2-(2',6'-dichlorophenyl)indone] | 5 (100% mortality) | 5 (100% mortality) | – | – | 22/30 | – |
| Cc1cc(C)c(C2=C(OC(=O)N3CCCCC3)c3ccccc3C2=O)c(C)c1 [2-(2',4',6'-Trimethylphenyl)-3-(piperdinocarbonyloxy)indone] | 1 | 3 (an approximately 50% mortality) | 4/20 | – | – | – |
| Cc1cc(C)c(C2=C(OC(=O)c3ccco3)c3ccccc3C2=O)c(C)c1 [2-(2',4',6'-Trimethylphenyl)-3-(2-furoyloxy)indone] | 5 (100% mortality) | 5 (100% mortality) | 17/20 | – | – | – |
| CC(C)c1ccccc1C1=C(OC(=O)C(C)(C)C)c2ccccc2C1=O [2-(2'-isopropylphenyl)-3-pivaloyloxyindone] | 1 | – | 4/20 | – | – | – |
